Experimental data published in ChEMBL document CHEMBL3632569, “Chemical constituents from Hericium erinaceus and their ability to stimulate NGF-mediated neurite outgrowth on PC12 cells” (Bioorg Med Chem Lett, 2015).
The source made the active and inactive calls. No cut-off for these calls is given here.

Tests used:
[1] = Cytotoxicity against rat PC12 cells assessed as cell viability at 10 and 20 uM after 72 hrs by SRB assay; type: cell-based; settings: pc-12, 72 h
PC-12 [2] = experiment: Effect on neurite outgrowth in rat PC12 cells at 10 and 20 uM after 48 hrs by inverted microscopic analysis; type: functional, cell-based
PC-12 [3] = experiment: Stimulation of NGF-mediated neurite outgrowth in rat PC12 cells at 10 and 20 uM after 48 hrs by inverted microscopic analysis; type: functional, cell-based
PC-12 [4] = experiment: Stimulation of NGF-mediated neurite outgrowth in rat PC12 cells at 20 uM after 48 hrs by inverted microscopic analysis (reference value: 15.32 +/- 0.25%); type: functional

C/C(=C\CC(O)[C@@H](C)[C@H]1CC[C@@]2(C)C3=C(CC[C@]12C)[C@@]1(C)CC[C@H](O)C(C)(C)C1CC3)C(=O)O (stereo partly drawn)
Activity [1]: Non-toxic
Activity (PC-12 [2]): inactive

CC(C)[C@@H](C)/C=C/[C@@H](C)[C@H]1CC[C@@H]2[C@]1(C)CC[C@H]1[C@]23C=C[C@]2(C[C@@H](O)CC[C@]12C)OO3 [ERGOSTEROL PEROXIDE]
Activity [1]: Non-toxic
Activity (PC-12 [3]): Active
Activity (PC-12 [2]): inactive

COc1cc2c(c3c1CCC(C)(CC(=O)C=C(C)C)O3)C(=O)OC2 (racemic)
Activity [1]: Non-toxic
Activity (PC-12 [3]): Active
Activity (PC-12 [4]): 19.96%
Activity (PC-12 [2]): inactive

CC(C)[C@@H](C)/C=C/[C@@H](C)[C@H]1CC[C@H]2C3=C[C@@H](O)[C@@]4(O)C[C@@H](O)CC[C@]4(C)[C@H]3CC[C@]12C [CEREVISTEROL]
Activity [1]: Non-toxic
Activity (PC-12 [3]): Active
Activity (PC-12 [2]): inactive

CC(C)[C@@H](C)/C=C/[C@@H](C)[C@H]1CC[C@H]2C3=CC(=O)[C@@]4(O)C[C@@H](O)CC[C@]4(C)[C@@]3(O)CC[C@]12C
Activity [1]: Non-toxic
Activity (PC-12 [3]): Active
Activity (PC-12 [2]): inactive

C[C@H](CC[C@H](O)C(C)(C)O)[C@H]1CC[C@@]2(C)C3=C(CC[C@]12C)[C@@]1(C)CC[C@H](O)C(C)(C)C1CC3 (stereo partly drawn)
Activity [1]: Non-toxic
Activity (PC-12 [2]): inactive

COc1cc2c(c3c1CC[C@@](C)(CC(=O)C=C(C)C)O3)C(=O)OC2
Activity [1]: Non-toxic
Activity (PC-12 [3]): Active
Activity (PC-12 [4]): 17.85%
Activity (PC-12 [2]): inactive

COc1cc2c(c3c1CC[C@](C)(CC(=O)C=C(C)C)O3)C(=O)OC2
Activity [1]: Non-toxic
Activity (PC-12 [3]): Active
Activity (PC-12 [4]): 21.79%
Activity (PC-12 [2]): inactive

C[C@H]1[C@H](C)CC[C@]2(C(=O)O)CC[C@]3(C)C(=CC[C@@H]4[C@@]5(C)CC[C@H](O)C(C)(C)[C@@H]5CC[C@]43C)[C@H]12 [URSOLIC ACID]
Activity [1]: Non-toxic
Activity (PC-12 [2]): inactive

CC1(C)CC[C@]2(C(=O)O)CC[C@]3(C)C(=CC[C@@H]4[C@@]5(C)CC[C@H](O)C(C)(C)[C@@H]5CC[C@]43C)[C@@H]2C1 [OLEANOLIC_ACID]
Activity [1]: Non-toxic
Activity (PC-12 [2]): inactive

C=C(C)[C@@H]1CC[C@]2(CO)CC[C@]3(C)[C@H](CC[C@@H]4[C@@]5(C)CC[C@H](O)C(C)(C)[C@@H]5CC[C@]43C)[C@@H]12 [BETULIN]
Activity [1]: Non-toxic
Activity (PC-12 [2]): inactive

CCCCCCCCCCCCCCCCCCCC(O)C(=O)N[C@@H](CO)C(O)[C@H](O)CCCCCCCCCCCCCCCCC (stereo partly drawn)
Activity [1]: Non-toxic
Activity (PC-12 [2]): inactive
